Experimental data: patent US11224223B2, “Feeding deterrence of pests such as Hemiptera, Lepidoptera and Coleoptera” (BEDOUKIAN RESEARCH, INC., priority 2012, dated 2022)

What was measured:
Type in all cases: in vivo
[1] = test system: sharpshooters; assay: Leafhopper repellency on citrus choice assays; conditions: 3% compound; citrus seedlings; 100 sharpshooters per cage; control 50/50
Description: Leafhopper Repellency on Citrus Choice Assays Citrus seedlings are sprayed with either a 3% solution of repellent chemical in a 5%:95% ETOH:Water or only 5%:95% ETOH:Water as a control. Two seedlings are placed in a screen cage, either a treatment vs control tree or a control vs control tree. 100 sharpshooters are released into each cage. The number of sharpshooters choosing each leaf is counted for both choice tests. The number of sharpshooters choosing each treatment is compared to the control to determine if there is a repellent effect.

[2] = test system: Popillia japonica; assay: Japanese beetle feeding damage on basil; conditions: 3% compound; basil leaf disks; adult beetle; 24 h
Protocol: Japanese Beetle Feeding Damage on Basil For choice feeding assays, 3% alcohol solutions of the tested compounds are prepared. Disks (4.0 cm in diameter) are cut from basil leaves and are dipped in the test solutions or alcohol alone as a control. After the complete evaporation of the solvent, the disks are offered to 1 adult beetle. All dishes are placed in an incubator. Four replicates are used for each chemical. After 24 h, the remaining uneaten area of each basil leaf disk is measured using a scanner and software. The selective antifeeding rate (%) formula is [(C−T)/(C+T)]×100, and the non-selective antifeeding rate (%) formula is [(C−T)/C)]×100, where C and T are the areas consumed by the control and treated leaf disks, respectively.

[3] = test system: saw tooth grain beetles; assay: Repellency of test compounds on grain beetles, treated corn kernels; conditions: 5% in isopropyl alcohol, 3 week period
Protocol: Ten replicates of 30 kernels of corn are immersed into the test compound and allowed to dry for 24 hours. The kernels are then transferred to a test container, and 10 saw tooth grain beetles are released. Test containers are secured and left for a 3 week period. At the end of this time, the […] grains are examined for feeding damage. […] Ten additional replicates treated with isopropyl alcohol are prepared to serve as controls.

[4] = test system: Sitostroga cerealella; assay: Feeding repellent assay for Angoumois larva on treated rice; conditions: 10% compound in a 5% Ethanol:95% water solution, third instar larvae, 1 week
Protocol: Feeding Repellent Assay for Angoumois Larva
One gram of rice is weighed and treated with 2% by weight of each test chemical or ethanol as a control for each treatment and replicate. The grains are allowed to dry and then weighed again. Treated or control rice grains are placed in a petri dish. Third instar larvae are starved for 8 h and gently introduced into the center of each compartment. 20 larva are screened per treatment, and each experiment is repeated three times. The weight of rice grains is measured again after 1 week. The selective antifeeding rate (%) formula is [(C−T)/(C+T)]×100, and the non-selective antifeeding rate (%) formula is [(C−T)/C)]×100, where C and T are the areas consumed by the control and treated leaf disks, respectively.

[5] = test system: brown marmorated stink bugs (BMSB); assay: Repellency as feeding deterrence in brown marmorated stink bugs, treated filter paper with green bean; conditions: compound at 3.5% in a 57% Ethanol:43% water solution; control 38%
Protocol: A test was designed to measure the repellency as feeding deterrence in brown marmorated stink bugs (BMSB). Five replicates of 5 BMSBs were introduced into test arenas, containing one 60 mm×15 mm Petri dish with treated filter papers in which a food source (green bean) was attached, at the start of the test. The small Petri dishes containing the treated filter paper and food source were covered with a fitted Petri dish lid in between observation times, and were removed 5 minutes before each observation time to prevent stink bugs from feeding until sated. The distribution of the BMSBs was observed and documented hourly for 5 hours.

| SMILES | Number of Psyllids Choosing each Treatment: Treated [1] | Number of Psyllids Choosing each Treatment: Untreated [1] | % Repellency [2] [%] | Increased Repellency vs. Control Repellency [3] [%] | % Antifeedent Activity [4] [%] | Repellency averaged over 5 hours [5] [%] |
| --- | --- | --- | --- | --- | --- | --- |
| CC/C(C)=C/CC/C(C)=C/CC1CCCC1=O (centres unmarked) [Methyl Apritone] | 30 | 70 | 15 | 10 | 70 | – |
| CCCCCC1C(=O)CCC1CC(=O)OCCC (centres unmarked) [Propyl Dihydrojasmonate] | 30 | 70 | 15 | 10 | 60 | 100 |
